The record followed here is patent US20110003858A1, “MULTIMERIC HETEROCYCLIC COMPOUNDS USEFUL AS NEUTROPHIL ELASTASE INHIBITORS” (priority 2006, published 2011).

This assay deals with T1, Human Neutrophil Elastase (HNE) (Homo sapiens, UniProt P08246).
T1 construct: Human Neutrophil Elastase (HNE) purified from serum; purchased Calbiochem 324681; host or cells: natural enzyme purified from human serum (so in the source)
T1 sequence (P08246 30-247 limits assumed): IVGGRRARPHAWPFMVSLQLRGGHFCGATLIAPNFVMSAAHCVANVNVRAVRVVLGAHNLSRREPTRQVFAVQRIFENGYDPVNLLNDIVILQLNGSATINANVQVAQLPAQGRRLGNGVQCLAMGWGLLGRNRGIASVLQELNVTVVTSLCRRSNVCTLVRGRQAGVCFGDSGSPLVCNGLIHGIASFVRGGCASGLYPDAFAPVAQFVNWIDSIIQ
Nature of the assay: Human Neutrophil Elastase Quenched-FRET Assay. Type of assay: biochemical. Conditions: HNE 1.7 nM, substrate MeOSuc-AAPV-AMC 100 μM, pH 7.5; read-out: Inhibition of HNE IC50. The method, then: Human Neutrophil Elastase Quenched-FRET Assay
The assay uses Human Neutrophil Elastase (HNE) purified from serum (Calbiochem art. 324681; Ref. Baugh, R. J. et al., 1976, Biochemistry. 15, 836-841). HNE was stored in 50 mM sodium acetate (NaOAc), 200 mM sodium chloride (NaCl), pH 5.5 with added 30% glycerol at −20° C. The protease substrate used was Elastase Substrate V Fluorogenic, MeOSuc-AAPV-AMC (Calbiochem art. 324740; Ref. Castillo, M. J. et al., 1979, Anal. Biochem. 99, 53-64). The substrate was stored in dimethyl sulphoxide (DMSO) at −20° C. The assay additions were as follows: Test compounds and controls were added to black 96-well flat-bottom plates (Greiner 655076), 1 μL in 100% DMSO, followed by 30 μL HNE in assay buffer with 0.01% Triton (trade mark) X-100 detergent. The assay buffer constitution was: 100 mM Tris(hydroxymethyl)aminomethane (TRIS) (pH 7.5) and 500 mM NaCl. The enzyme and the compounds were incubated at room temperature for 15 minutes. Then 30 μl substrate in assay buffer was added. The assay was incubated for 30 minutes at room temperature. The concentrations of HNE enzyme and substrate during the incubation were 1.7 nM and 100 μM, respectively. […] Fluorescence was measured on a Wallac 1420 Victor 2 instrument at settings: Excitation 380 nm, Emission 460 nm. IC50 values were determined using Xlfit curve fitting using model 205.

pIC50: −log10 of the molar value.

As for `Cc1c(-c2ccnn2-c2ccc(C#N)cc2)cc(C(=O)NCC(O)CNC(=O)c2cc(-c3ccnn3-c3ccc(C#N)cc3)c(C)n(-c3cccc(C(F)(F)F)c3)c2=O)c(=O)n1-c1cccc(C(F)(F)F)c1` [Example 2, N,N′-(2-Hydroxypropane-1,3-diyl)bis(5-(1-(4-cyanophenyl)-1H-pyrazol-5-yl)-6-methyl-2-oxo-1-(3-(trifluoromethyl)phenyl)-1,2-dihydropyridine-3-carboxamide)], the negative-log IC50 (pIC50) is 9.59.
To `Cc1c([S+]([O-])c2ccc(C#N)cc2)cc(C(=O)NCCOCCOCCNC(=O)c2cc([S+]([O-])c3ccc(C#N)cc3)c(C)n(-c3cccc(C(F)(F)F)c3)c2=O)c(=O)n1-c1cccc(C(F)(F)F)c1` (centres unmarked) [Example 1] belongs 9.21.

As usually defined, the pIC50 is the IC50 on a negative log10 scale, so that one unit is a factor of ten.
